Reference: patent US7273888B2, “Use of difluoromethylornithine (DFMO) for the treatment of amyotrophic lateral sclerosis” (ALS Therapy Development Foundation, Inc., priority 2001, dated 2007)

How the values were obtained:
SOD1 G93A mice [1] = assay: Neurological score analysis in SOD1 G93A (high copy) mouse model of ALS; assay type: in vivo
Text: Survival in the mouse is copy dependent.
Controls animals were given water as vehicle.

[2] = system: patients with advanced non-small cell lung cancer; conditions: Phase I, advanced non-small cell lung cancer (Hahm et al. 2002); cited from earlier work
SOD1 G93A mice [3] = assay: Survival analysis (Kaplan-Meier) in SOD1 G93A (high copy) mouse model of ALS
Text: (i) Model Description: The SOD1 G93A (high copy) mouse model was used as the model for ALS. This mouse model carries 25 copies of the human G93A SOD mutation and is driven by the endogenous promoter.
(ii) Murine FALS model: Heterozygous transgenic mice carrying the human SOD-1 (G93A) gene were obtained from Jackson Laboratory (Bar Harbor, Me., USA).
(iv) Methods: Forty (n=40) SOD1 G93A high copy mice obtained from Jackson Laboratory (Bar Harbor, Me.) were separated into two groups of twenty (n=20) with an equal number of males (n=10) and females (n=10) in each group. The groups were also litter matched to reduce group variation. Male animals were singly housed and females were group housed to conserve space. […] When animals had difficulty in moving and taking care of themselves chow and water were replaced with food pellets in bedding and Jell-O for water. (v) Pharmacological Agent Delivery: All pharmacological agents were administered to SOD1 G93A mice.
Controls animals were given water as vehicle. All treatments are performed 7 days per week and treatment was initiated at day 60 of life. […] When a neurological score of 2 is attained, the animals are no longer capable of drinking themselves due to paralysis. […] Controls were given water as vehicle until a neurological score of 2 at which point they were injected with saline as vehicle.
• 0=Normal reflex on the hind limbs (animal will splay its hind limbs when lifted by its tail). • 1=Abnormal reflex of hind limbs (lack of splaying of hind limbs when animal is lifted by the tail). • 2=Abnormal reflex of limbs and evidence of paralysis. • 3=Lack of reflex and complete paralysis. • 4=Inability to right themselves when placed on the sides in 30 seconds or found dead. The animals are sacrificed at this stage if alive.

SOD1 G93A mice [4] = conditions: mouse, in vivo, ip, 250 mg/kg/day
[5] = female mice, IP 24 mg/kg/day twice daily till death, FIG. 12
[6] = discontinuous dosing 3200 mg/Kg/day in drinking water, 21 days on / 7 days off

## CCNCCCNCCCNCCCNCC [DENSPM, N(1),N(11)-diethylnorspermine]
SOD1 G93A mice [1]; female mice, IP 24 mg/kg/day twice daily till death, FIG. 13
  effect on neurological score: protective
[2]
  toxicity in patients: minimal toxicity
SOD1 G93A mice [3]; [5]
  onset of disease: delays the onset of disease
  survival: extends the survival

## NCCCC(N)(C(=O)O)C(F)F (racemic) [DFMO, 2-(Difuoromethyl)-DL-ornithine]
SOD1 G93A mice [1]; combined male and female, continuous dosing 3200 mg/Kg/day, FIGS. 5
  effect on neurological score: protective
SOD1 G93A mice [1]; female mice, discontinuous dosing 3200 mg/Kg/day, during the drug delivery period
  effect on neurological score: protective
SOD1 G93A mice [1]; female, continuous dosing 3200 mg/Kg/day, FIG. 9
  effect on neurological score: protective
SOD1 G93A mice [1]; male, continuous dosing 3200 mg/Kg/day, FIG. 7
  effect on neurological score: protective
SOD1 G93A mice [3]; continuous dosing 3200 mg/Kg/day in drinking water, no drug holiday
  onset of disease: delays the onset of disease
SOD1 G93A mice [3]; continuous dosing 3200 mg/Kg/day in drinking water, no drug holiday, combined, male and female, FIGS. 4, 6 and 8
  life span: extended the life span
SOD1 G93A mice [3]; [6]
  onset of disease: delays the onset of disease
  survival: extends the survival
SOD1 G93A mice [3]; females, discontinuous dosing 3200 mg/Kg/day in drinking water, 21 days then 7 day drug holiday, FIG. 2
  deaths of animals in the treatment group during the drug holiday or a few days immediately succeeding it: 70%
SOD1 G93A mice [3]; ongoing IP injection study, 3200 mg/kg, male mice
  trend in male mice: positive male trend

## NC(=O)NO [hydroxyurea]
SOD1 G93A mice [4]
  toxicity leading to stop of treatment: discontinued after day 110 due to toxicity
SOD1 G93A mice [1]; female mice, IP 250 mg/Kg/day once daily, day 50 until day 110, FIG. 11
  effect on neurological score: protective
SOD1 G93A mice [3]; IP 250 mg/Kg/day once daily, day 50 until day 110
  onset of ALS disease: delays the onset of ALS disease
SOD1 G93A mice [3]; female mice, IP 250 mg/Kg/day once daily, day 50 until day 110, FIG. 10
  life span: extended the life span
